Data reported in BindingDB's records for doi:10.1021/jm900517t.
pIC50: −log10 of the molar value.

Experiments:
Assay in all cases: HCV RNA-Dependent RNA Polymerase Assay (IC50)
Genome polyprotein [1] = target: Genome polyprotein (Hepatitis C virus genotype 2b (isolate HC-J8), UniProt P26661)
Genome polyprotein [2] = target: Genome polyprotein (Hepatitis C virus genotype 1b (isolate BK), UniProt P26663); settings: pH 7.5; 23 °C
[3] = target: T1, Genome polyprotein [2420-2989,R2920E,R2963Q] (Hepatitis C virus genotype 1b (isolate BK), UniProt P26663, R2920E/R2963Q); settings: pH 7.5; 23 °C
T1 construct: 2420-2989
T1 sequence (P26663 2420-2997, looked up, stated change not applied): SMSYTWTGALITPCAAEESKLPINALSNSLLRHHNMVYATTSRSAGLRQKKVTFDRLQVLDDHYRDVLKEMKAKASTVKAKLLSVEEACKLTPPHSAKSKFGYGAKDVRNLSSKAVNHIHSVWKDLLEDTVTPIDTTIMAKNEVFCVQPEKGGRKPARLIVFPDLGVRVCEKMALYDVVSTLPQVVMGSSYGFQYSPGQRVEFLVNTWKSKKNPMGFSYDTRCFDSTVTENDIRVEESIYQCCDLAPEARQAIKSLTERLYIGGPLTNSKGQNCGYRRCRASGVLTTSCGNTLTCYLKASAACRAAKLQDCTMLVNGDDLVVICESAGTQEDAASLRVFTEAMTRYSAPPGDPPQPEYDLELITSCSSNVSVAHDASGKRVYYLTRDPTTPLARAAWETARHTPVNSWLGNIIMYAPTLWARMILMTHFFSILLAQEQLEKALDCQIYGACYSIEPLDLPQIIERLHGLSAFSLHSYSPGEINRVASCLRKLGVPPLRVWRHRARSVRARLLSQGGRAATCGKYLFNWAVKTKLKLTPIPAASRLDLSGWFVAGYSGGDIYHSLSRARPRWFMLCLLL

[4] = target: T2, Genome polyprotein [2420-2989,M2842K,R2963Q] (Hepatitis C virus genotype 1b (isolate BK), UniProt P26663, M2842K/R2963Q); settings: pH 7.5; 23 °C
T2 construct: 2420-2989
T2 sequence (P26663 2420-2997, looked up, stated change not applied): as above

Sequence of Genome polyprotein (Hepatitis C virus genotype 2b (isolate HC-J8), UniProt P26661) (P26661 2443-3033 limits assumed): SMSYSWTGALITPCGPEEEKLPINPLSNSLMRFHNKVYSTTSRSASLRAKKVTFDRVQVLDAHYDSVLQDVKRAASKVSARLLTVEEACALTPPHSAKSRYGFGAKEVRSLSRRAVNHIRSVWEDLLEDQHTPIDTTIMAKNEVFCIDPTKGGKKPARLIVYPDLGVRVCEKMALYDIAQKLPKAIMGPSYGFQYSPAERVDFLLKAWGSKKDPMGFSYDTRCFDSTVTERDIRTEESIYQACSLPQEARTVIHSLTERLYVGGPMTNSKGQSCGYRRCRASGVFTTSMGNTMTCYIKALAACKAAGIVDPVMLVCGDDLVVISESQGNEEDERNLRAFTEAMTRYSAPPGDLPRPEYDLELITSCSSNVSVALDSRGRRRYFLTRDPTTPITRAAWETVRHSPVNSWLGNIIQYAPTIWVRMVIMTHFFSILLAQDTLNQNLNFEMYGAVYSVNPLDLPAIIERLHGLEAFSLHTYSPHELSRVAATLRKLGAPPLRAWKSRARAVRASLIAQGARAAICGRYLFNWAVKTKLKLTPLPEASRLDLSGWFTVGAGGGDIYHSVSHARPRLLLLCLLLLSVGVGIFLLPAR
Sequence of Genome polyprotein (Hepatitis C virus genotype 1b (isolate BK), UniProt P26663) (P26663 2420-3010 limits assumed): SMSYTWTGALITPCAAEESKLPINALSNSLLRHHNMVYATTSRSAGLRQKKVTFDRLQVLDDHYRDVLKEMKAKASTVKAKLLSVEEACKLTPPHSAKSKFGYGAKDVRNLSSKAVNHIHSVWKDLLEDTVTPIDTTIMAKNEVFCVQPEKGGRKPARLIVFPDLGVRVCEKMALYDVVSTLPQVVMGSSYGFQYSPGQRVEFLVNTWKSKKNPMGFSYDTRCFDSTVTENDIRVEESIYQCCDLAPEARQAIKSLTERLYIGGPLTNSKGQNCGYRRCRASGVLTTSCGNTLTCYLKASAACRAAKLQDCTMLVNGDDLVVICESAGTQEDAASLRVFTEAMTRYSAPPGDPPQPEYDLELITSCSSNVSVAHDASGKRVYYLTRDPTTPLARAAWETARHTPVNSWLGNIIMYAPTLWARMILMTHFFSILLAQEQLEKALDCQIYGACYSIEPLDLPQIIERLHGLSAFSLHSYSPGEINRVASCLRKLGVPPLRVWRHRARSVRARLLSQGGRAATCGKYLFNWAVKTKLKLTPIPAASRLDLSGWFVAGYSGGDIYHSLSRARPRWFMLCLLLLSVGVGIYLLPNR

O=C1c2cccc3c(NCCO)ccc(c23)C(=O)N1c1ccccc1 [1H-benzo[de]isoquinoline-1,3(2H)-dione, 4]
pIC50 (Genome polyprotein [1]): < 4.30

NS(=O)(=O)c1cccc(N2C(=O)c3cccc4c(NCCO)ccc(c34)C2=O)c1 [1H-benzo[de]isoquinoline-1,3(2H)-dione, 14]
pIC50 (Genome polyprotein [1]): < 4.30

OCCNc1ccc2c3c(cccc13)CN(c1cccc(Br)c1)C2 [benzo[de]isoquinoline, 11]
pIC50 (Genome polyprotein [2]): < 4.30 | pIC50 (Genome polyprotein [1]): < 4.30

O=C1c2cccc3c(NCCO)ccc(c23)C(=O)N1c1cccc(F)c1 [1H-benzo[de]isoquinoline-1,3(2H)-dione, 13]
pIC50 (Genome polyprotein [1]): < 4.30

CC(C)N(c1cc(-c2ccccc2)sc1C(=O)O)C(=O)[C@H]1CC[C@H](C)CC1 [thiophene scaffold, 21]
pIC50 [3]: 7.00 | pIC50 [4]: < 6.30 | pIC50 (Genome polyprotein [1]): < 5.00

O=C1c2cccc3cccc(c23)C(=O)N1c1cccc(Br)c1 [1H-benzo[de]isoquinoline-1,3(2H)-dione, 5]
pIC50 (Genome polyprotein [2]): < 4.30 | pIC50 (Genome polyprotein [1]): < 4.30
